# From PubChem BioAssay (NCI)
#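 Grown in 96-well plates, cells were treated for 48 hours with each compound at five concentrations. Insufficient inhibition: endpoint recorded as highest concentration tested. At the TGI there is no net growth.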
# System: SK-OV-3 ovarian
# Test: inhibition of tumour cell growth, NCI panel, 48 h
row,Structure (SMILES),TGI
1,CCOC1C=CC(=O)C(CO)O1 (stereo not given),33.3 µM
2,Cc1c2cccc-2c2cc(O)c3ccccc3c2n1-c1ccc(N(C)C)cc1,29.3 µM
3,O=c1[nH]c(NCc2ccncc2)nc2nc[nH]c12,> 100 µM
4,O=CC(I)=C(c1ccccc1)c1ccccc1,29.9 µM
5,Cn1c2ccccc2c2ccc3c(c21)C(=O)c1ccc2c4ccccc4n(C)c2c1C3=O,> 100 µM
6,Cc1ccc(-c2cc(-c3ccco3)c(C#N)c(=S)[nH]2)cc1,> 100 µM
7,COc1ccc(C)cc1N1C(=O)C2ON(Cc3ccc(CC(N)=O)cc3)C(c3c4ccccc4c(Cl)c4ccccc34)C2C1=O (stereo not given),> 100 µM
8,COc1ccc(C2Oc3ccc(Cl)cc3C=C2[N+](=O)[O-])cc1 (stereo not given),> 100 µM
9,COCOc1ccc(C(=O)Oc2cccc3c2OC(C)(C)O3)c(OCOC)c1,> 100 µM
10,COC(=O)c1ccccc1C1CN=NC12Cc1c(ccc(C)c1C)C2=O (stereo not given),> 100 µM
11,NCCN1CCCCCc2ccccc21,> 10 µM
12,CN(C)CCN(c1ccccn1)c1ccccn1,> 100 µM
13,CN(CCN1CCCC1)C1CCc2cc(Cl)c(Cl)cc2C1 (stereo not given),32.4 µM
14,CC(C)Oc1cccc(N2C(n3ccnc3)=Nc3ccncc3S2(=O)=O)c1,31.8 µM
15,CC(C)NC(=O)OCc1c(COC(=O)NC(C)C)n(C)c2c1ccc1sccc12,> 100 µM
16,O=C(CC(NC(=O)C(F)(F)F)C(=O)O)OCc1ccccc1 (stereo not given),> 100 µM

# System: ACHN renal
# Test: inhibition of tumour cell growth, NCI panel, 48 h
row,Structure (SMILES),TGI
1,O=C(/C=C/c1ccc(Cl)cc1)Oc1ccc(C=C2CCC/C(=C\c3ccc(OC(=O)/C=C/c4ccc(Cl)cc4)cc3)C2=O)cc1,> 100 µM
2,COc1ccc2c(c1)c1c(n2CCN2CCCCC2)-c2cccc(OC)c2CC1,43 µM
3,COc1ccc2nc(NC(=O)/C(C#N)=C/c3ccccc3)sc2c1,> 100 µM
4,Cc1c(C)n(-c2ccccc2)c2nc(S(C)=O)nc(S(C)=O)c12 (stereo not given),18.5 µM
5,CC1(C)CC(=O)C2=C(C1)C(c1ccccc1Cl)C1C(=O)CC(C)(C)CC1(O)O2 (stereo not given),> 100 µM
6,CCc1c(O)cc(=O)oc1-c1ccc(OC)c(OC)c1,> 100 µM
7,Cc1ccc2c(c1C)C(=O)C1(Cc3cc4c(cc3C1=O)CCC4)C2 (stereo not given),> 100 µM
8,CCCCI(O)OS(=O)(=O)c1ccc(C)cc1,> 100 µM
9,C[C@@H]1CC[C@@]2(C)C(C(=O)O)=CCCC2[C@@]1(C)CC(=O)c1ccoc1 (stereo not given in full),> 25 µM
10,O=C(CCc1cc(O)cc(O)c1)NCCc1cc(OCc2ccccc2)cc(OCc2ccccc2)c1,15.6 µM
11,c1ccc(C2=NC3OC2c2ccccc23)cc1 (stereo not given),> 10 µM
12,O=c1oc2ccc3ccccc3c2cc1-c1cn2ccsc2n1,32.1 µM
13,CCOC(=O)CSc1nc(N)c2c(-c3ccccc3)c3c(nc2n1)CCCC3,> 100 µM
14,COC(=O)/C=C(/C=C1/C(C#N)=C(N)N(c2ccc(Cl)cc2)C1(C)/C(=C\C(=O)OC)C(=O)OC)C(=O)OC (stereo not given),76.8 µM
15,O=c1c2c3c(sc2[nH]c(=S)n1-c1ccccc1)CCCc1ccc([N+](=O)[O-])cc1-3,> 100 µM
16,CCOC(=O)c1c(N2CCCC2)[nH]c(=O)c(C(c2ccc(OC)cc2)c2c(O)c(C(=O)OCC)c(N3CCCC3)[nH]c2=O)c1O,> 100 µM

row,Structure (SMILES),TGI
1,CCOC1C=CC(=O)C(CO)O1 (stereo not given),24.1 µM
2,Cc1c2cccc-2c2cc(O)c3ccccc3c2n1-c1ccc(N(C)C)cc1,24.9 µM
3,O=c1[nH]c(NCc2ccncc2)nc2nc[nH]c12,> 100 µM
4,O=CC(I)=C(c1ccccc1)c1ccccc1,38.1 µM
5,Cn1c2ccccc2c2ccc3c(c21)C(=O)c1ccc2c4ccccc4n(C)c2c1C3=O,> 100 µM
6,Cc1ccc(-c2cc(-c3ccco3)c(C#N)c(=S)[nH]2)cc1,> 100 µM
7,COc1ccc(C)cc1N1C(=O)C2ON(Cc3ccc(CC(N)=O)cc3)C(c3c4ccccc4c(Cl)c4ccccc34)C2C1=O (stereo not given),75 µM
8,COc1ccc(C2Oc3ccc(Cl)cc3C=C2[N+](=O)[O-])cc1 (stereo not given),> 100 µM
9,COCOc1ccc(C(=O)Oc2cccc3c2OC(C)(C)O3)c(OCOC)c1,> 100 µM
10,COC(=O)c1ccccc1C1CN=NC12Cc1c(ccc(C)c1C)C2=O (stereo not given),> 100 µM
11,NCCN1CCCCCc2ccccc21,> 10 µM
12,CN(C)CCN(c1ccccn1)c1ccccn1,> 100 µM
13,CN(CCN1CCCC1)C1CCc2cc(Cl)c(Cl)cc2C1 (stereo not given),30.5 µM
14,CC(C)Oc1cccc(N2C(n3ccnc3)=Nc3ccncc3S2(=O)=O)c1,21.6 µM
15,CC(C)NC(=O)OCc1c(COC(=O)NC(C)C)n(C)c2c1ccc1sccc12,> 63.8 µM
16,O=C(CC(NC(=O)C(F)(F)F)C(=O)O)OCc1ccccc1 (stereo not given),> 100 µM

# System: MDA-MB-435
# Test: inhibition of tumour cell growth, NCI panel, 48 h
row,Structure (SMILES),TGI
1,O=C(/C=C/c1ccc(Cl)cc1)Oc1ccc(C=C2CCC/C(=C\c3ccc(OC(=O)/C=C/c4ccc(Cl)cc4)cc3)C2=O)cc1,> 100 µM
2,COc1ccc2c(c1)c1c(n2CCN2CCCCC2)-c2cccc(OC)c2CC1,31.5 µM
3,COc1ccc2nc(NC(=O)/C(C#N)=C/c3ccccc3)sc2c1,> 100 µM
4,Cc1c(C)n(-c2ccccc2)c2nc(S(C)=O)nc(S(C)=O)c12 (stereo not given),9.76 µM
5,CC1(C)CC(=O)C2=C(C1)C(c1ccccc1Cl)C1C(=O)CC(C)(C)CC1(O)O2 (stereo not given),> 95.8 µM
6,CCc1c(O)cc(=O)oc1-c1ccc(OC)c(OC)c1,> 100 µM
7,Cc1ccc2c(c1C)C(=O)C1(Cc3cc4c(cc3C1=O)CCC4)C2 (stereo not given),> 100 µM
8,CCCCI(O)OS(=O)(=O)c1ccc(C)cc1,> 100 µM
9,C[C@@H]1CC[C@@]2(C)C(C(=O)O)=CCCC2[C@@]1(C)CC(=O)c1ccoc1 (stereo not given in full),> 25 µM
10,O=C(CCc1cc(O)cc(O)c1)NCCc1cc(OCc2ccccc2)cc(OCc2ccccc2)c1,37.6 µM
11,c1ccc(C2=NC3OC2c2ccccc23)cc1 (stereo not given),> 10 µM
12,O=c1oc2ccc3ccccc3c2cc1-c1cn2ccsc2n1,46 µM
13,CCOC(=O)CSc1nc(N)c2c(-c3ccccc3)c3c(nc2n1)CCCC3,> 100 µM
14,COC(=O)/C=C(/C=C1/C(C#N)=C(N)N(c2ccc(Cl)cc2)C1(C)/C(=C\C(=O)OC)C(=O)OC)C(=O)OC (stereo not given),41 µM
15,O=c1c2c3c(sc2[nH]c(=S)n1-c1ccccc1)CCCc1ccc([N+](=O)[O-])cc1-3,> 100 µM
16,CCOC(=O)c1c(N2CCCC2)[nH]c(=O)c(C(c2ccc(OC)cc2)c2c(O)c(C(=O)OCC)c(N3CCCC3)[nH]c2=O)c1O,> 100 µM

row,Structure (SMILES),TGI
1,CCOC1C=CC(=O)C(CO)O1 (stereo not given),25.6 µM
2,Cc1c2cccc-2c2cc(O)c3ccccc3c2n1-c1ccc(N(C)C)cc1,27.8 µM
3,O=c1[nH]c(NCc2ccncc2)nc2nc[nH]c12,> 100 µM
4,O=CC(I)=C(c1ccccc1)c1ccccc1,31.4 µM
5,Cn1c2ccccc2c2ccc3c(c21)C(=O)c1ccc2c4ccccc4n(C)c2c1C3=O,> 100 µM
6,Cc1ccc(-c2cc(-c3ccco3)c(C#N)c(=S)[nH]2)cc1,65.1 µM
7,COc1ccc(C)cc1N1C(=O)C2ON(Cc3ccc(CC(N)=O)cc3)C(c3c4ccccc4c(Cl)c4ccccc34)C2C1=O (stereo not given),62.1 µM
8,COc1ccc(C2Oc3ccc(Cl)cc3C=C2[N+](=O)[O-])cc1 (stereo not given),> 100 µM
9,COCOc1ccc(C(=O)Oc2cccc3c2OC(C)(C)O3)c(OCOC)c1,> 100 µM
10,COC(=O)c1ccccc1C1CN=NC12Cc1c(ccc(C)c1C)C2=O (stereo not given),> 100 µM
11,NCCN1CCCCCc2ccccc21,> 10 µM
12,CN(C)CCN(c1ccccn1)c1ccccn1,> 100 µM
13,CN(CCN1CCCC1)C1CCc2cc(Cl)c(Cl)cc2C1 (stereo not given),37.5 µM
14,CC(C)Oc1cccc(N2C(n3ccnc3)=Nc3ccncc3S2(=O)=O)c1,32.7 µM
15,CC(C)NC(=O)OCc1c(COC(=O)NC(C)C)n(C)c2c1ccc1sccc12,35.1 µM
16,O=C(CC(NC(=O)C(F)(F)F)C(=O)O)OCc1ccccc1 (stereo not given),> 100 µM
